Test results as given in patent publication US8318146B1, “Ascarosides as nematode sex pheromones” (The United States of America, as represented by the …, priority 2008, dated 2012).

Assays:
[1] = tested on: adult male Caenorhabditis elegans; test: Caenorhabditis mating assay (male attraction, time spent in scoring region); assay type: in vivo; settings: for activity in the attraction assay: 0 to 10000 fmol range; for male attraction activity, each ascaroside tested individually at physiological concentrations: 0 to 10 fmol for ascr#3, 0 to 100 fmol for ascr#2; for male attraction when assayed individually: 10 fmol ascr#3, 100 fmol ascr#2; for shape of dose-response curve: 0.1 fmol to 10,000 fmol (FIG. 4); for male attraction activity at higher concentrations: above the physiological range
Procedure: Wild-type C. elegans var. N2 Bristol and males from the CB1490 him-5(e1490) mutant were utilized in bioassays. The him-5(e1490) mutant segregates XO male progeny by X chromosome nondisjunction during meiosis. All strains were maintained at 20° C. unless detailed otherwise.
Standard nematode growth medium plates (5 cm diameter) were used for assaying biological activity of the nematode conditioned water. The assay plates comprised of a thin lawn of an overnight grown E. coli OP50 culture with an approximate 0.25 cm gap between the bacterial lawn and the edge of the plate to prevent the nematodes from escaping. Plates were stored at room temperature (20° C.) for two days before being used in trials. Two spots (5 mm in diameter) were spotted 1.6 cm apart from each other on a template and stuck to the bottom of the assay plate. 0.8 μl of the control and the nematode metabolite were placed in the two circles and allowed to dry for approximately 30 seconds. To remove any bias, control and conditioned water spots were interchanged after every trial. Males and hermaphrodites were harvested daily at the fourth larval stage (L4) and stored at 20° C. overnight with 50-60 nematodes of the same sex per plate to be used as young adults the following day. Five nematodes were placed at approximately 1.0 cm away on each side (10 nematodes total) from the spots and allowed to acclimatize for 5 minutes. Trials were videotaped at 30 frames per second for 15 minutes using the Fire-i Unibrain software. For each sample, a minimum of 4-5 trials were conducted each day and each stage was tested on at least three different days.
Each time a nematode entered and left the scoring region it was scored as a nematode event. The time the nematode entered the scoring region and left the scoring region was recorded. Once inside the scoring region, the average time spent by each nematode was noted and the average time spent by the different nematode in the scoring region during the 15 minute interval (control and the conditioned water) were calculated.

[2] = Stability of ascr#2 and ascr#3 in agar plates (LC-MS); assay type: physicochemical; settings: agar plates with 200 nM stored at room temperature for three months; extract in 1 ml methanol
Procedure: Agar plates (total volume: 20 ml) prepared from Nobel agar and S-media containing ascr#2 and ascr#3 at a concentration of 200 nM were stored at room temperature for three months and subsequently lyophilized. The residue was powdered using a mortar and extracted with ethanol. The extract was evaporated to dryness, redissolved in 1 ml of methanol, and analyzed via LC-MS, using an Agilent 1100 HPLC system equipped with a 10×250 mm Supelco 5μ ODS preparative column eluted at a flow rate of 3.4 ml/min, and a Micromass Quattro II triple-quadrupole mass spectrometer operated in positive-electrospray ionization mode. A solvent gradient was used starting with a solvent composition of 5% methanol and 95% water, which was maintained for three minutes and then progressed linearly to 100% methanol by 40 minutes, resulting in retention times of 21.3 min (ascr#3) and 25.6 min (ascr#2).

Male C. elegans = test: Reversal frequency of males on ascaroside agar plates (automated nematode tracker); assay type: in vivo, Caenorhabditis elegans
Procedure: Given the nature of the attraction assay, the exact concentration of the compounds tested in the scoring region is not well defined. […] A system used to track the sinusoidal movement of nematodes is disclosed in Cronin et al., 2005. BMC Genet. 6:5 and incorporated herein by reference.
For the tracker assays, standard nematode growth medium was prepared and added the different ascarosides to the required concentrations into the agar. Plates containing the ascarosides were then allowed to cool and stored at 20° C. overnight. Control plates were treated the same way except that instead of the ascaroside, an equivalent quantity of 100% ethanol was added to the agar. Assay plates were seeded with a thin lawn of an overnight grown E. coli OP50 culture and allowed to dry overnight. 10-15 L4 males were picked 14-16 hours before the experiment on E. coli OP50 seeded plates. For each assay, individual males were picked and placed on assay plates. After 5 minutes, males were assayed for 15 min using the automated tracker to get the different locomotion parameters. For each concentration of ascaroside, an equal number of males were tested on control plates. After the recordings, nematodes were processed using automated tracker software and the results were analyzed using in-house matlab scripts.

Row | SMILES | activity in the attraction assay ([1]; single ascaroside) | male attraction activity, each ascaroside tested individually at physiological concentrations ([1]; FIG. 4) | male attraction when assayed individually [1] | shape of dose-response curve ([1]; single ascaroside) | male attraction activity at higher concentrations ([1]; single ascaroside) | time spent in spotted region relative to control region (maximum) ([1]; single ascaroside, FIG. 4) | concentration in the agar extract [2] | increase of reversal frequency (Male C. elegans; ascaroside in agar, FIG. 6B) | rank of male attraction response among single ascarosides ([1]; single ascaroside, FIG. 4) | lowest concentration that increases reversal frequency (Male C. elegans; ascaroside in agar, FIG. 6A) | male attractant concentration lower than required for dauer induction (Male C. elegans; comparison with dauer induction)
1 | C[C@H](CCCCC(=O)O)O[C@@H]1O[C@@H](C)[C@H](O)C[C@H]1O [ASCR #1, 6R-(Tetrahydro-3′R,5′R-dihydroxy-6′S-methyl-2H-pyran-2′R-yloxy)-heptanoic acid] | not active | – | – | – | – | – | – | – | – | – | –
2 | CC(=O)CC[C@@H](C)O[C@@H]1O[C@@H](C)[C@H](O)C[C@H]1O [ASCR #2, 5R-(Tetrahydro-3′R,5′R-dihydroxy-6′S-methyl-2H-pyran-2′R-yloxy)-2-hexanone] | – | not active | did not elicit significant male attraction | strongly biphasic activity profile | active | ~2.8 fold | 3.5 µM | only weak increases | – | – | –
3 | C[C@H](CCCC/C=C/C(=O)O)O[C@@H]1O[C@@H](C)[C@H](O)C[C@H]1O [ASCR #3, 8R-(Tetrahydro-3′R,5′R-dihydroxy-6′S-methyl-2H-pyran-2′R-yloxy)-2E-nonenoic acid] | – | not active | did not elicit significant male attraction | strongly biphasic activity profile | active | approximately 6.6 fold | 3.2 µM | – | strongest response | 1 pM | more than 10.000 fold
4 | CC(=O)CC[C@@H](C)O[C@@H]1O[C@@H](C)[C@H](O)C[C@H]1O[C@@H]1O[C@H](CO)[C@@H](O)[C@H](O)[C@H]1O [ASCR #4, 5R-(3′-O-[β-D-glucosyl]-tetrahydro-3′R,5′R-dihydroxy-6′S-methyl-2H-pyran-2′R-yloxy)-2-hexanone] | not active | – | – | – | – | – | – | – | – | – | –
